# From publication PMC5079557, “Expression of Soluble Forms of Yeast Diacylglycerol Acyltransferase 2 That Integrate a Broad Range of Saturated Fatty Acids in Triacylglycerols” (PLoS ONE, 2016)
# Key:
# [1] = target: T1, Dga1pΔ85 (Yarrowia lipolytica, UniProt Q6C3R2); experiment: fluorescent DGAT assay, HPTLC of NBD-TG; type: biochemical
# T1 construct: gene YALI0_E32769g; lacks 85 N-terminal residues (incl. putative TM domain) of the 515-residue protein; N-terminal MBP fusion kept, ~90 kDa, pMalc2X, E. coli BL21 (DE3) pLysS; dimer on SEC
# [2] = target: T2, Dga1pΔ19 (Yarrowia lipolytica, UniProt Q6C3R2); experiment: fluorescent DGAT assay, HPTLC of NBD-TG; type: biochemical; conditions: 1 mM niacin; 100 μM C18:0-CoA, 100 μM NBD-DG, 20 mM MgCl2, Hepes pH 7.6, 31°C; noncompetitive (per cited literature)
# T2 construct: gene YALI0_E32769g; lacks 19 N-terminal residues of the printed 515-residue protein; N-terminal MBP fusion kept, ~99 kDa, pMalc2X, E. coli BL21 (DE3) pLysS; dimer on SEC
# [3] = target: T1, Dga1pΔ85; experiment: fluorescent DGAT assay, HPTLC of NBD-TG; type: biochemical; conditions: 1 mM niacin; 100 μM C18:0-CoA, 100 μM NBD-DG, 20 mM MgCl2, Hepes pH 7.6, 31°C; noncompetitive (per cited literature)
# [4] = target: T2, Dga1pΔ19; experiment: fluorescent DGAT assay, HPTLC of NBD-TG; type: biochemical; conditions: acyl donor; 100 μM NBD-DG, 20 mM MgCl2, Hepes pH 7.6, 0.01% tween 20, 31°C
# [5] = target: MBP-Dga1pΔ19 fusion protein (Yarrowia lipolytica); experiment: SEC; Hiload 16/60 Superdex 200 column, 4°C; amylose-purified fractions incubated overnight with lysis buffer (50 mM Tris-HCl pH 7.5, 150 mM NaCl, 5% glycerol, 1 mM EDTA, 1 mM TCEP) with 0.5% N-lauroyl sarcosine before the column; major peak taken as a dimer
# [6] = target: MBP-Dga1pΔ85 construct (Yarrowia lipolytica); experiment: as above
# T1 sequence (Q6C3R2 entry or part of it, stated change not applied): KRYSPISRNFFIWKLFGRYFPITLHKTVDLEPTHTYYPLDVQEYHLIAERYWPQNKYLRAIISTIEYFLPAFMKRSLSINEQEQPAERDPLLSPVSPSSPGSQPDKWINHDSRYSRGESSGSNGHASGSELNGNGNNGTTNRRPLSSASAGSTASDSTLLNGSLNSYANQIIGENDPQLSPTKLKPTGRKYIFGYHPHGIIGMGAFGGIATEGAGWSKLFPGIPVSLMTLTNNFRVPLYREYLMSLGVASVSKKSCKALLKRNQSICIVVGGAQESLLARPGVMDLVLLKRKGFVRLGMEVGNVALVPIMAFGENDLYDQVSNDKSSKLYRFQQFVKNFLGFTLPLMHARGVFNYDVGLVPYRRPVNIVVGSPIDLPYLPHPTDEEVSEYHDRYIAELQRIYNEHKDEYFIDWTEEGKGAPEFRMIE
# T2 sequence (Q6C3R2 entry or part of it, stated change not applied): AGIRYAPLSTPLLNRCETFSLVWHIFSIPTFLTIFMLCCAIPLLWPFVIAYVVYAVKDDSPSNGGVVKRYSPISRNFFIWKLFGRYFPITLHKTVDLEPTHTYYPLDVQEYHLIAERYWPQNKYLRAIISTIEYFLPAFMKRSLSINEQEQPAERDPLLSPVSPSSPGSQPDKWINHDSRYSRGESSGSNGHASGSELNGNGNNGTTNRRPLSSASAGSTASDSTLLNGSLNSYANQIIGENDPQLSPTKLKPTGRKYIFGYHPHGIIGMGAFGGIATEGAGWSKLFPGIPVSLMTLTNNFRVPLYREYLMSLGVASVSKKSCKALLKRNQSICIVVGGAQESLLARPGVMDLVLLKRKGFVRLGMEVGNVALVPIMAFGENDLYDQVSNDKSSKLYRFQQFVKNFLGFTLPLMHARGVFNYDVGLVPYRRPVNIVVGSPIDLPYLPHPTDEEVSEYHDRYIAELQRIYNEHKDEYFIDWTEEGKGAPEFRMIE
compound,measurement,setting,value
CCCCCCCCCC(=O)O[C@@H](CO)COC(=O)CCCCCCCCCNc1ccc([N+](=O)[O-])c2nonc12 [NBD-DG],"fluorescent DGAT assay, HPTLC of NBD-TG","[1]; acyl acceptor, labelled compound, 100 μM with C18:0-CoA, 20 mM MgCl2, Hepes pH 7.6, 31°C",both recombinant enzymes harbored increasing DGAT activities in the presence of various C18:0-CoA concentrations
O=C(O)c1cccnc1 [niacin],% decrease of TG production at 1 mM,[2],70%
same,% decrease of TG production at 1 mM,[3],99.5%
CCCCCCCCCCCCCCCCCC(=O)SCCNC(=O)CCNC(=O)[C@H](O)C(C)(C)COP(=O)(O)OP(=O)(O)OC[C@H]1O[C@@H](n2cnc3c(N)ncnc32)[C@H](O)[C@@H]1OP(=O)(O)O [stearoyl-CoA],"fluorescent DGAT assay, HPTLC of NBD-TG",[4],C18:0-CoA was an efficient acyl donor for both enzyme versions
same,"fluorescent DGAT assay, HPTLC of NBD-TG","[1]; acyl donor, 100 μM NBD-DG, 20 mM MgCl2, Hepes pH 7.6, 0.01% tween 20, 31°C",C18:0-CoA was an efficient acyl donor for both enzyme versions
MBP-Dga1pΔ19 fusion protein (domain or fragment),stoichiometry N,[5],2
MBP-Dga1pΔ85 construct (domain or fragment),stoichiometry N,[6],2
